The term plant injury denotes the degree to which the test organism was suppressed or injured, in per cent. In general, pest or weed control refers to how far the test organism was held down. The low end stands for weak suppression, the high end for strong suppression.

SMILES strings stand for the structures. Where only a bound is given, the exact number is not on record here.

The values below come from US4868321A, “Isothiocyanate intermediates” (FMC Corporation, priority 1988, dated 1989).

What all share (assay type): in vivo
For assay [1], the system named is Soybean. Description: Postemergence Herbicidal Activity, Soybean. Particulars: Glycine max, post-emergence; for plant injury at 250 g/ha: 0.25 kg/ha. In short, it runs like this: (§1)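 Kilogram-per-hectare application rates; outcome scored by percent control of treated plants.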
In assay [2] the test system is Velvetleaf. Briefly: Postemergence Herbicidal Activity, Velvetleaf. Particulars: Abutilon theophrasti, post-emergence; for pest or weed control at 250 g/ha: 0.25 kg/ha. In short, it runs like this:
(§2)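 Percent control scored after pre- or postemergence treatment at rates in kg/ha, using test compounds generally formulated in 50/50 acetone/water.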

Assay [3] deals with Green Foxtail. Briefly: Postemergence Herbicidal Activity, Green Foxtail. Conditions: Setaria viridis, post-emergence; for pest or weed control at 250 g/ha: 0.25 kg/ha. A digest of the protocol:
(§3)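 Herbicidal response was graded as percent control. Compound rates were in kg/ha.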

In assay [4] the test system is Barnyardgrass. Description: Postemergence Herbicidal Activity, Barnyardgrass. Particulars: Echinochloa crus-galli, post-emergence; for pest or weed control at 250 g/ha: 0.25 kg/ha. A digest of the protocol: as §3
For assay [5], the system named is Johnsongrass. Description: Postemergence Herbicidal Activity, Johnsongrass. Particulars: Sorghum halepense, post-emergence; for pest or weed control at 250 g/ha: 0.25 kg/ha. In short, it runs like this:
as §3

Assay [6] has as its system Johnsongrass. Description: Preemergence Herbicidal Activity, Johnsongrass. Particulars: Sorghum halepense, pre-emergence; for pest or weed control at 250 g/ha: 0.25 kg/ha. In short, it runs like this: as §3
Assay [7] concerns Wheat. Description: Postemergence Herbicidal Activity, Wheat. Particulars: Triticum aestivum, post-emergence; for plant injury at 250 g/ha: 0.25 kg/ha. In short, it runs like this:
as §1

Assay [8] concerns Field Corn. Briefly: Preemergence Herbicidal Activity, Field Corn. Conditions: Zea mays, pre-emergence; for plant injury at 250 g/ha: 0.25 kg/ha. In short, it runs like this: as §1
The test system of assay [9] is Rice. Briefly: Postemergence Herbicidal Activity, Rice. Conditions: Oryza sativa, post-emergence; for plant injury at 250 g/ha: 0.25 kg/ha. A digest of the protocol: as §1
In assay [10] the test system is Wheat. Description: Preemergence Herbicidal Activity, Wheat. Conditions: Triticum aestivum, pre-emergence; for plant injury at 250 g/ha: 0.25 kg/ha. In short, it runs like this:
as §1

Assay [11] has as its system Morningglory. Briefly: Preemergence Herbicidal Activity, Morningglory. Particulars: Ipomoea, pre-emergence; for pest or weed control at 250 g/ha: 0.25 kg/ha. In short, it runs like this: as §2
Assay [12] deals with Morningglory. Briefly: Postemergence Herbicidal Activity, Morningglory. Particulars: Ipomoea, post-emergence; for pest or weed control at 250 g/ha: 0.25 kg/ha. A digest of the protocol: as §2
In assay [13] the test system is Soybean. Briefly: Preemergence Herbicidal Activity, Soybean. In short, it runs like this: as §1
For assay [14], the system named is Field Bindweed. Briefly: Postemergence Herbicidal Activity, Field Bindweed. Particulars: post-emergence; for pest or weed control at 250 g/ha: 0.25 kg/ha. In short, it runs like this: as §2
Assay [15] relates to Barnyardgrass. Briefly: Preemergence Herbicidal Activity, Barnyardgrass. Conditions: Echinochloa crus-galli, pre-emergence; for pest or weed control at 250 g/ha: 0.25 kg/ha. In short, it runs like this: as §3
For assay [16], the system named is Field Bindweed. Briefly: Preemergence Herbicidal Activity, Field Bindweed. Particulars: pre-emergence; for pest or weed control at 250 g/ha: 0.25 kg/ha. A digest of the protocol:
as §2

Assay [17] concerns Velvetleaf. Briefly: Preemergence Herbicidal Activity, Velvetleaf. Particulars: Abutilon theophrasti, pre-emergence; for pest or weed control at 250 g/ha: 0.25 kg/ha. A digest of the protocol:
as §2

Assay [18] has as its system Field Corn. Description: Postemergence Herbicidal Activity, Field Corn. Conditions: Zea mays, post-emergence; for plant injury at 250 g/ha: 0.25 kg/ha. In short, it runs like this:
as §1

Assay [19] has as its system Green Foxtail. Description: Preemergence Herbicidal Activity, Green Foxtail. Particulars: Setaria viridis, pre-emergence; for pest or weed control at 250 g/ha: 0.25 kg/ha. A digest of the protocol:
as §3

Assay [20] deals with Cotton. Description: Preemergence Herbicidal Activity, Cotton. A digest of the protocol: as §2
Assay [21] has as its system Rice. Briefly: Preemergence Herbicidal Activity, Rice. Particulars: Oryza sativa, pre-emergence; for plant injury at 250 g/ha: 0.25 kg/ha. In short, it runs like this: as §1
The subject of assay [22] is broad leaf weeds. Briefly: preemergence use against broad leaf weeds. Conditions: with crops such as corn, rice, wheat and soybeans.
Assay [23] has as its system Cotton. Briefly: Postemergence Herbicidal Activity, Cotton. Conditions: Gossypium hirsutum, post-emergence; for plant injury at 250 g/ha: 0.25 kg/ha. In short, it runs like this:
as §2

Assay [24] relates to weeds of wide spectrum. Briefly: weed control of paddy rice in pots, weeds. Conditions: 1 day and 11 day treatments, e.g. about 0.06 kg/ha or less. From the text: (§4) In addition, tests of the effectiveness of weed control of paddy rice were done in pots containing clay loam paddy soil under water maintained at a depth of 3 cm. In one test tubers of narrowleaf arrowhead (Sagittaria pymaea) and rhizomes of flatsedge (Cyperus serotinus) were planted in pots at depth of 2 cm and 0.5 cm respectively, rice seedlings of 2.2 leaf state were transplanted in depth of 2 cm and 0 cm and a controlled amount of a 10% wp (wettable powder) formulation of the herbicidal compound in water was dropped into the water over the soil at 1 day and 11 days, respectively, after transplanting. In another test, seeds of various weed species (including barnyardgrass, Echinochoa crus-galli; small flower umbrellaplant, Cyperus difformis; bulrush, Scripus juncoides; Japanese ducksalad, Monochoria vaginalis; annual broadleaf weeds; and narrowleaf waterplantain, Alisma canaliculatium) were sown on the surface of the soil and the same (1 day and 11 day) herbicide applications were made.

Assay [25] relates to Rice. Description: weed control of paddy rice in pots, transplanted rice. Particulars: rice transplanted at a depth of 2 cm.
From the text: as §4

In assay [26] the test system is soybeans, corn, barley, wheat, rice (e.g. paddy rice), beans, peas, peanuts and potatoes. Description: selective herbicidal use on crops, especially preemergent.
Assay [27] deals with broadleafed weeds. Description: postemergence control of broadleaf weeds. Particulars: plantings of corn, wheat, barley, oats, rice and sorghum; about 30 to 250 g/ha, e.g. 125 g/ha.
The mark [28] stands for this setting: Glycine max, pre-emergence, 0.25 kg/ha.
Setting [29] is: Gossypium hirsutum, pre-emergence, 0.25 kg/ha.

Consider `CCS(=O)(=O)Nc1cc(-n2nnn(CCCF)c2=O)c(F)cc1Br` [Compound 34, 1-[4-Bromo-2-fluoro-5-(N--ethylsulfonylamino)phenyl]-4,5-dihydro-], for which the plant injury at 250 g/ha in assay [1] came to 70%; in assay [7], 40%; in assay [8] it was 60%; in assay [9] it was 70%; in assay [10] it was 0%; in assay [13] (setting [28]) it was 20%. Moreover, the plant injury at 250 g/ha in [18] was 40%; in assay [20] (setting [29]) it was 95%; in [21], 60%; in assay [23], 100%. Besides, the pest or weed control at 250 g/ha in assay [2] is 100%; in assay [3], 90%; in assay [4], 70%; in assay [5], 50%; in assay [6], 50%; in assay [11], 100%. Moreover, the pest or weed control at 250 g/ha in assay [12] turned out to be 100%; in assay [14] it was 100%; in assay [15], 95%; in assay [16], 100%; in [17], 100%; in assay [19] it was 70%. In addition, the “usefulness preemergently against broad leaf weeds” value in [22] was “particularly useful”.
With `CCS(=O)(=O)Nc1cc(-n2nnn(CCCF)c2=O)c(F)cc1Cl` [Compound 4, 1-[4-chloro-2-fluoro-5-(ethylsulfonylamino)phenyl]-1,4-dihydro-4-(3-fluoropropyl)-5H-tetrazol-5-one], the “activity against weeds (paddy)” value in [24] is recorded as “very high activity”. Further, the plant injury at 250 g/ha in assay [1] turned out to be 60%; in assay [7] it was 20%; in assay [9] it was 20%; in assay [10] it was 10%; in [18], 50%; in assay [23] it was 100%. Moreover, the “selectivity (paddy rice)” value in [25] is reported as “selectivity favorable to rice”. Further, the pest or weed control at 250 g/ha in assay [2] amounted to 100%; in assay [3], 80%; in [4], 50%; in assay [5], 20%; in assay [6], 30%; in assay [12], 95%. Moreover, the pest or weed control at 250 g/ha in [14] was determined as 100%; in assay [15], 80%; in assay [19] it was 20%. The effective rate in assay [26] ("effective at low rates, e.g. at about 0.5 kg/ha and below") is listed as at most 0.5 kg/ha. Besides, the selective herbicidal effectiveness entry in assay [26] (especially preemergent use on crops) was “particularly effective”. Further, the “Preemergence Herbicidal Activity” value in assay [13] (0.25 kg/ha) turned out to be 0 % Control; in assay [20] (0.25 kg/ha), 95 % Control. Besides, the “control of broadleafed weeds, postemergent” value in [27] is recorded as “very good control”. Further, the “usefulness preemergently against broad leaf weeds” value in assay [22] is listed as “particularly useful”.
With `CS(=O)(=O)Nc1cc(-n2nnn(CCCF)c2=O)c(F)cc1Cl` [Compound 2, 1-[4-chloro-2-fluoro-5-(N--methylsulfonylamino)phenyl]-1,4-dihydro-4-(3-fluoropropyl)-5H--tetrazol-5-one], the plant injury at 250 g/ha amounted to 50% in [1]; 20% in assay [7]; 40% in assay [8]; 50% in [9]; 10% in assay [10]; 20% in assay [13] (setting [28]). The plant injury at 250 g/ha in [18] was determined as 80%; in assay [20] (setting [29]), 95%; in assay [21], 70%; in assay [23] it was 100%. Also, the pest or weed control at 250 g/ha in [2] worked out at 100%; in assay [3], 50%; in assay [4], 40%; in assay [5] it was 50%; in assay [6], 40%; in assay [11], 100%. The pest or weed control at 250 g/ha was 100% in assay [12]; 100% in assay [14]; 60% in assay [15]; 100% in [16]; 100% in [17]; 40% in assay [19].
Regarding `CCCn1nnn(-c2cc(N(S(=O)(=O)CC)S(=O)(=O)CC)c(Cl)cc2F)c1=O` [Compound 49, 1-[4-Chloro-2-fluoro-5-[bis-(N--ethylsulfonyl)amino]phenyl]-4,5-dihydro-4-propyl-5H--tetrazol-5-one], the plant injury at 2000 g/ha in [1] (2.0 kg/ha) was 50%; in [7] (2.0 kg/ha) it was 80%; in assay [8] (2.0 kg/ha), 90%; in assay [9] (2.0 kg/ha) it was 50%; in assay [10] (2.0 kg/ha), 95%; in [13] (Glycine max, pre-emergence, 2.0 kg/ha), 20%. Further, the plant injury at 2000 g/ha in assay [18] (2.0 kg/ha) was 80%; in [20] (Gossypium hirsutum, pre-emergence, 2.0 kg/ha), 90%; in assay [21] (2.0 kg/ha) it was 70%; in assay [23] (2.0 kg/ha), 100%. For the same compound, the pest or weed control at 2000 g/ha in assay [2] (2.0 kg/ha) turned out to be 100%; in assay [3] (2.0 kg/ha), 95%; in assay [4] (2.0 kg/ha), 95%; in assay [5] (2.0 kg/ha), 90%; in assay [6] (2.0 kg/ha), 80%; in assay [11] (2.0 kg/ha) it was 70%. Also, the pest or weed control at 2000 g/ha in assay [12] (2.0 kg/ha) was determined as 90%; in [14] (2.0 kg/ha), 80%; in assay [15] (2.0 kg/ha) it was 100%; in assay [16] (2.0 kg/ha) it was 80%; in assay [17] (2.0 kg/ha) it was 100%; in [19] (2.0 kg/ha) it was 100%.
